This data set in a line: gradient 5% acetonitrile 3 min, to 50% in 2 min, to 85% in 15 min, held 3 min, 100 µL/min. Particulars: column: Zorbax Extend-C18 2.1 x 50 mm; eluents: water / acetonitrile, 0.1% formic acid. In a few lines:
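Each retention time is based on an adduct peak selected computationally and verified by manual inspection. Measurements used HPLC–quadrupole time-of-flight mass spectrometry in positive and negative ionization mode on mixtures of ~100 pure standards. Chromatography ran on a Zorbax Extend-C18 column (2.1 × 50 mm, 1.8 μm) at 100 μL/min with water and acetonitrile, each containing 0.1% formic acid, and dead and dwell volumes of 40 μL and 900 μL.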
As to `Cn1nc(-c2nnc(-c3ccc(F)cc3)o2)c2c1CCN(C(=O)Nc1ccc(Cl)cc1)C2`, the RP-LC retention time was 936 s.
For the compound `Cc1cccc(Sc2nccnc2N2CCCC(C(=O)NC3CCCCCC3)C2)c1` (stereo not drawn), the RP-LC retention time worked out at 1230 s.
The figure for `COC(=O)C1=CN(c2ccc(C)cc2C)c2ccccc2S1(=O)=O` is 869 s; for `O=C(NCCc1csc(-c2ccc(F)cc2)n1)Oc1ccccc1` it is 944 s.
For `Cc1ccc(CN2CCC(C3CCN(S(C)(=O)=O)CC3)C2)nc1` (stereo not drawn), the RP-LC retention time came to 580 s.
As for `CCOC(=O)c1nc(Nc2ccc(OC)c(OC)c2)c2ccccc2n1`, the figure is 736 s.
The figure for `CCC(C)CN(CC(=O)N1CCc2sccc2C1COc1ccccc1F)C(=O)COC` (stereo not drawn) is 958 s; for `Cc1ccc(NC(=O)Cn2nc3c(N4CCN(c5ccccc5C)CC4)nccn3c2=O)cc1` it is 1080 s.
As for `Cc1cccc(Nc2nnc(CC(=O)Nc3cc(F)ccc3Cl)s2)c1`, the figure is 872 s; as for `CCOC(=O)N1CCN(c2cc(C(=O)O)c3cc(NC(=O)c4ccccc4OC)ccc3n2)CC1`, 629 s.
`COc1ccc(CNC(=O)NCC(c2ccccc2Cl)N(C)C)cc1` (stereo not drawn) had an RP-LC retention time of 577 s.
In turn, `Cc1ccc(Nc2c(-c3ccc([N+](=O)[O-])cc3)nc3ccc(Cl)cn23)cc1` came in with an RP-LC retention time of 1100 s.
`O=C(c1ccccc1Br)N1CCN(c2nc(CN3CCCC3)cs2)CC1` showed an RP-LC retention time of 627 s.
The figure for `CCOC(=O)c1[nH]c(C)c(CCC(=O)N2CCC(C(=O)NCc3ccc(CC)cc3)CC2)c1C` is 867 s; for `O=C(Nc1ccc2c(c1)OCCO2)C1CCCN(C(=O)c2ccc(Cl)cc2)C1` (stereo not drawn) it is 815 s; for `O=C(Nc1ccccc1F)N1CCC(CCOc2ccccc2)CC1` it is 1030 s.
As for `CCOC(=O)N1CCC(NC(=O)CCc2cc3ccc(C)cc3[nH]c2=O)CC1`, the figure is 689 s.
As for `COc1ccccc1NC(=O)c1ccc(Br)cc1F`, the figure is 1070 s; as for `O=C(O)c1nnn(-c2ccccc2F)c1-c1cccnc1`, 612 s; as for `CS(=O)(=O)N1CCC(C(=O)Nc2ccc(F)cc2F)Oc2ccc(Cl)cc21` (stereo not drawn), 944 s.
With `O=C(NCc1cc(F)cc(F)c1)c1ccc2c(c1)nc1n2CCN(C2CCCCC2)C1=O`, the RP-LC retention time came to 830 s.
Compound `Cc1nc2cc(-c3noc(Cc4c(F)cccc4Cl)n3)ccc2o1` had an RP-LC retention time of 1050 s.
Regarding `O=C(NCc1ccc(F)cc1)NC1CCN(C(=O)N2C[C@H]3C[C@H](C2)[C@H]2CCCC(=O)N2C3)CC1`, the RP-LC retention time turned out to be 658 s.
As for `CC(C)c1cccc(C(C)C)c1N1C(=O)c2ccc(O)cc2C1=O`, the figure is 1130 s; as for `CC1CCN(S(=O)(=O)c2ccc3c(c2)-c2oncc2CO3)CC1`, 673 s.
The figure for `CCCc1ccc(S(=O)(=O)N2CCN(c3cnn4c(C5CC5)nnc4c3)CC2)cc1` is 856 s.
As for `Cc1cc2c(cc1CNC(=O)Cn1cc(C(=O)c3ccco3)c3ccccc31)OCCCO2`, the figure is 837 s.
The compound `COCCN1C(=O)c2ccccc2C(C(=O)NCCN2CCCCC2C)C1c1cccs1` (stereo not drawn) came in with an RP-LC retention time of 634 s.
The figure for `CCCCNC(=O)C1CC(=O)N(c2n[nH]c3cccc(F)c23)C1` (stereo not drawn) is 660 s; for `Cc1nn(-c2ccccc2)c(C)c1S(=O)(=O)N1CCC(C(=O)NCc2ccccc2)CC1` it is 886 s; for `CCCN1C(=O)C2CCC(=O)N2c2ccc(C(=O)NCCCN3CCCC3=O)cc21` (stereo not drawn) it is 631 s.
As for `O=S(=O)(c1ccc2ccccc2c1)N1CCC(c2nc(-c3ccccn3)no2)CC1`, the figure is 952 s; as for `O=C(NC1CCCCCC1)c1ccc2c(c1)nc1n2CCN(c2ccccc2)C1=O`, 804 s.
The figure for `CCOC(=O)c1csc(NC(=O)c2ccccc2Br)n1` is 780 s.
As for `CCCn1cc(CCNC(=O)Nc2cccc(C)c2)c2cccnc21`, the RP-LC retention time amounted to 782 s.
For the compound `Cn1nc(-c2nc(C3CC3)no2)c2c1CCN(C(=O)Nc1ccc(C(F)(F)F)cc1)C2`, the RP-LC retention time is 959 s.
As for `Cc1ccn(CC(C)NC(=O)c2cn3ccccc3n2)n1` (stereo not drawn), the figure is 583 s; as for `Cc1sc(C)c(S(=O)(=O)N2CCc3ccccc3C2)c1-c1cc(C(F)(F)F)on1`, 1280 s; as for `Cc1ccc(CNC(=O)N2CCN(c3ncccc3-c3nnc(C(C)C)o3)CC2)cc1`, 815 s.
As for `Cc1cc2c(c(=O)n(-c3ccc(F)cc3)c(=O)n2CC(=O)Nc2ccc(C(C)C)cc2)n1C`, the figure is 921 s.
The figure for `Cc1ccc(C2=NC3(CCN(C(=O)c4ccc5ccccc5n4)CC3)ON2)cc1` is 809 s.
Compound `COCCN1C(=O)c2ccccc2C(C(=O)Nc2nc(C)cs2)C12CCCCC2` (stereo not drawn) showed an RP-LC retention time of 810 s.
The figure for `COc1ccc(Nc2c(-c3ccc(N4CCOCC4)cc3)nc3ncccn23)cc1` is 654 s.
The figure for `CS(=O)(=O)N1CCC(C(=O)NCc2ccc(Cl)cc2)Oc2ccccc21` (stereo not drawn) is 1010 s; for `O=C1[C@H]2CN(Cc3ccccc3OC(F)(F)F)C[C@H]2C(=O)N1Cc1ccc2c(c1)OCO2` it is 1050 s.
As for `CCn1cc(CCN2CCN(S(=O)(=O)c3ccc(C)c(F)c3)CC2)c2cccnc21`, the figure is 677 s; as for `CCN1CCCn2cc(S(=O)(=O)N3CCN(c4ccccc4)CC3)cc2C1=O`, 813 s.
Consider `Cc1cccc(NC(=O)Nc2ccc3nnc(C)n3c2)c1`, for which the RP-LC retention time amounted to 747 s.
The figure for `O=C(NCc1nc(-c2ccc(NS(=O)(=O)c3ccccc3)cc2)no1)c1cccs1` is 832 s.
The figure for `CC(C)CN1C(=O)c2cccn2CC1CNC(=O)c1ccco1` (stereo not drawn) is 672 s; for `CCc1noc(-c2ccnc(-n3ncc(C(=O)N4CCCC4)c3C)c2)n1` it is 840 s.
As for `COc1cccc(-c2nc(-c3ccc4c(c3)ncn4CCN3CCCCC3)no2)c1`, the figure is 657 s; as for `O=C(NCc1ccc(N2CCOCC2)cc1)c1cccc2c1CCN2C(=O)C1CC1`, 735 s.
Turning to `COc1ccc(C(=O)N2CCc3ccc(C(=O)NCc4ccc(C)o4)cc32)cc1`, the RP-LC retention time was determined as 865 s.
As for `Cc1ncc2c(n1)C[C@@H]1CC[C@H]2N1C(=O)Nc1ccccc1F`, the figure is 638 s; as for `CC(C)c1ccc(NC(=O)c2cn(C)nc2S(=O)(=O)N2CCSCC2)cc1`, 944 s; as for `CCCCN1C(=O)c2ccccc2C(C(=O)NCc2cccnc2)C12CCCCC2` (stereo not drawn), 678 s.
As for `COc1ccc2[nH]cc(CCNC(=O)c3cc(Cl)ccc3Cl)c2c1`, the figure is 878 s; as for `CCN1CCN(CCCNC(=O)c2ccc3nc(C(C)C)oc3c2)CC1`, 667 s.
The compound `Cn1c(=O)c(N2CCCC(C(=O)NCc3cccc(Br)c3)C2)nc2ccccc21` (stereo not drawn) gave an RP-LC retention time of 998 s.
The figure for `COc1cc(C(=O)Nc2c(-c3ccc(F)cc3)nc3ccccn23)cc(OC)c1OC` is 657 s; for `Cc1ccccc1N1CCN(C(=O)C2CC(=O)N(CCc3ccccc3)C2)CC1` (stereo not drawn) it is 725 s; for `CN(C)C(=O)CN1CCN(c2cc(C(=O)O)c3cc(NC(=O)c4ccc(F)cc4)ccc3n2)CC1` it is 579 s.
As for `CCOC(=O)C1CCCN(C(=O)C2CCN(S(=O)(=O)c3ccc4c(ccn4CC)c3)CC2)C1` (stereo not drawn), the figure is 849 s.
Take `Cc1ccc(-c2cc3c(=O)n(Cc4noc(CN5CCC(C)CC5)n4)ccn3n2)cc1`: the RP-LC retention time stood at 713 s.
As for `COc1ccc(NC(=O)c2nc(C)oc2C)c(OC)c1`, the RP-LC retention time was 913 s.
Turning to `O=S(=O)(NCC(c1cccnc1)c1c[nH]c2ccccc12)c1ccc2c(c1)CCCC2` (stereo not drawn), the RP-LC retention time was 790 s.
In turn, `CN1C(=O)c2ccccc2Oc2ccc(C(=O)NC3CCCCC3)cc21` returned an RP-LC retention time of 891 s.
The compound `CC(C)c1ccc(NC(=O)C2CCN(C(=O)c3ncn4c3COC(c3ccccc3)C4)CC2)cc1` (stereo not drawn) returned an RP-LC retention time of 914 s.
The figure for `COc1ccc(OC)c(S(=O)(=O)N2CCCC(C(=O)Nc3ccc(C(N)=O)cc3)C2)c1` (stereo not drawn) is 689 s; for `COc1ccc(Cl)cc1S(=O)(=O)N1CCc2nn(C)c(=O)n2CC1` it is 712 s; for `CCNC(=O)C1CCN(S(=O)(=O)c2ccc3c(c2)NC(=O)CO3)CC1` it is 623 s.
As for `Cc1[nH]c(C(=O)N2CCC(CC(=O)NCc3cccc(Cl)c3)CC2)c(C)c1C(=O)OC(C)C`, the figure is 868 s; as for `Cc1ccc(-c2noc(-c3cccc(S(=O)(=O)N4CCCC4)c3)n2)cc1`, 1280 s; as for `O=C(NCc1ccc(N2CCCCC2)cc1)c1ccc2ncnc(N3CCCC3)c2c1`, 561 s.
The figure for `CCOC(=O)C1CCN(C(=O)c2sc(Nc3cccc(C)n3)nc2C)CC1` is 774 s.
`CN(C)c1ccc(/C=C2\C(=O)Nc3ccccc32)cc1` had an RP-LC retention time of 1010 s.
The figure for `Cc1cnc(-c2ccccc2)n1C1CN(Cc2cccc(C#N)c2)C1` is 559 s.

The values are drawn from the METLIN SMRT retention time set (Domingo-Almenara et al. 2019).
